Laboratory results published in patent US20080003627A1, “SYSTEM FOR BIOSYNTHESIS OF FIREFLY LU[…] WITH NATURAL L-CYSTEINE OR DERIVATIVES THEREOF AND LU[…] SOLUTIONS CONTAINING THE SYSTEM” (NATIONAL INSTITUTE OF ADVANCED INDUSTRIAL SCIENCE AND …, priority 2004, published 2008).

Target: firefly luciferase (Photinus pyralis, UniProt P08659)
Assay: firefly luminescence reaction (luminescence activity as substrate)
Type: biochemical
Conditions: ATP, Mg ion, luminometer
Procedure: In a buffer solution (0.1 M Tris-HCl, pH 8), 10 mM 2-cyano-6-hydroxybenzothiazole, 1 mM L-cysteine, 10 mM COA-SH, 0.1 mg/mL of firefly luciferase and 100 units/mL of swine liver esterase were dissolved, 10 μL of the mixture was dispensed in a tube for measuring the luminescence, and a total volume was made 100 μL by adding the same buffer. An ATP—Mg solution (100 μL, 6 mM ATP—Na, 16 mM MgSO4) was injected thereto to initiate a luminescence reaction, and a luminescence amount was measured using a luminometer AB2200 supplied from ATTO Corporation.

Chain of firefly luciferase (P08659 whole entry): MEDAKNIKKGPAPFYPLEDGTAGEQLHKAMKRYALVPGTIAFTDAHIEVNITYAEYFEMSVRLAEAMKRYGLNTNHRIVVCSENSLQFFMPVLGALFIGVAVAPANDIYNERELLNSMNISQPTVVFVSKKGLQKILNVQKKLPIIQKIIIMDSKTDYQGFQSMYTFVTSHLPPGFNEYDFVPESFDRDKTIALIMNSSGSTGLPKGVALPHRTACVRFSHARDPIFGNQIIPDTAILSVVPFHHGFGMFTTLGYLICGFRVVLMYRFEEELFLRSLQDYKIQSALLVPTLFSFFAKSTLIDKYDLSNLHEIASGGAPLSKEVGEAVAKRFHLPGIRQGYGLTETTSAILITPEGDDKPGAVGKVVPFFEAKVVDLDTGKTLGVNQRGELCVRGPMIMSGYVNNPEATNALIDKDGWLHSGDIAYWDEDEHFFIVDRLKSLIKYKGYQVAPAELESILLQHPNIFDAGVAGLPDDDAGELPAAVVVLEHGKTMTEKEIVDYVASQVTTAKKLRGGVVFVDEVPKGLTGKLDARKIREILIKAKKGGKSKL

Question: `CC(C)(COP(=O)(O)OP(=O)(O)OCC1OC(n2cnc3c(N)ncnc32)C(O)C1OP(=O)(O)O)C(O)C(=O)NCCC(=O)NCCSC(=O)C1CSC(c2nc3ccc(O)cc3s2)=N1` (stereo not shown) [luciferyl-CoA] was tested. Which “luminescence activity (produces luminescence with luciferase)” value did it give?
Answer: The value was “does not produce the luminescence”.
